The text below walks through data of patent US20060089378A1 (priority 2004, published 2006).

As usually defined, the IC50 is the midpoint of a concentration-inhibition curve. As usually defined, the inhibition is the relative decrease from the control value, in per cent. For orientation: EC50 means the concentration giving half of the maximal effect. Read a low EC50 as an effect from little substance.

In one assay the target is T1, Cannabinoid CB1 Receptor (Homo sapiens, UniProt P21554).
T1 construct: expressed in transfected cells
As to the kind of experiment: Binding assay for CB1 agonists or inverse agonists (radioligand competition, membranes of transfected SK-N-MC cells).

Another assay deals with T2, Cannabinoid CB2 Receptor (Homo sapiens, UniProt P34972).
T2 construct: expressed in transfected cells
Description: Binding assay for CB2 agonists or inverse agonists (radioligand competition, membranes of transfected SK-N-MC cells). The following applies: for inhibition at 0.2 µM: read-out: Cannabinoid CB2 Receptor Binding percent inhibition.

The target of the next assay is CB1 receptor (human) (Homo sapiens, UniProt P21554). Description: cell-based.
Setting [1] is: test concentration of 0.2 μM, compounds without an IC50 binding value.

Like-named read-outs stand apart in the source and are kept apart here.

T1 sequence (P21554 whole entry): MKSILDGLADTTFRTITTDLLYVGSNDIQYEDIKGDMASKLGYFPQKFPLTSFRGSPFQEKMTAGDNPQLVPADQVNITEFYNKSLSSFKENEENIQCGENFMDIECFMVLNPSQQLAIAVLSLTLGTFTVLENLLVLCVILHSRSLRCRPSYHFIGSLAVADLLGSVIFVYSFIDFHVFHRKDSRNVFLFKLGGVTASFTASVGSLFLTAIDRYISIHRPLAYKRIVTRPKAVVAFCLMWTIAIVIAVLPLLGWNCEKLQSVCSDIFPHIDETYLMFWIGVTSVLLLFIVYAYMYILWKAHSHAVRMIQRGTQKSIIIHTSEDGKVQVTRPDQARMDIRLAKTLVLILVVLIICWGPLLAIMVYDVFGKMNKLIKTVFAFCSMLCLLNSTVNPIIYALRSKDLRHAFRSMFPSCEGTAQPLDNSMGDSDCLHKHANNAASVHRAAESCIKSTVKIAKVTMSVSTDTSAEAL
CB1 receptor (human), sequence (P21554 whole entry): as above
T2 sequence (P34972 whole entry): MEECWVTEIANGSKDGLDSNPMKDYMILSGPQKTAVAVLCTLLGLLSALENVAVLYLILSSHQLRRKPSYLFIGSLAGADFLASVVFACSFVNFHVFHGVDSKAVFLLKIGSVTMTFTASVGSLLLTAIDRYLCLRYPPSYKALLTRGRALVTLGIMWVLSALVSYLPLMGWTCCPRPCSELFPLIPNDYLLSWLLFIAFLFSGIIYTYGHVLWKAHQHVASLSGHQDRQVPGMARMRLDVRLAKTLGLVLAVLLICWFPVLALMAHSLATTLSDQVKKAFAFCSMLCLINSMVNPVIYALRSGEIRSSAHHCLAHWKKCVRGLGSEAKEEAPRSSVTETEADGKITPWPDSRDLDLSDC

In the case of `COC(=O)N1C/C(=C\c2ccc(F)cc2)c2c(c(C(=O)N[C@H](C)c3ccccc3)nn2-c2ccc(Cl)cc2)C1` [Cpd 67, (7E)-1-(4-chloro-phenyl)-7-(4-fluoro-benzylidene)-3-[(1R)-1-phenyl-ethylcarbamoyl]-1,4,6,7-tetrahydro-pyrazolo[4,3-c]pyridine-5-carboxylic acid methyl ester], the half-inhibitory concentration (IC50) on Cannabinoid CB1 Receptor amounted to 5 nM. The inhibition at 0.2 µM on Cannabinoid CB2 Receptor was 19%. This compound also showed a concentration giving a half-maximal response (EC50) on CB1 receptor (human) of 1 nM.

Compound `C[C@@H](NC(=O)c1nn(-c2ccc(Cl)cc2Cl)c2c1CN(C(=O)OCc1ccccc1)C/C2=C\c1ccc(F)cc1)c1ccccc1` [Cpd 16, (7E)-1-(2,4-dichloro-phenyl)-7-(4-fluoro-benzylidene)-3-[(1R)-1-phenyl-ethylcarbamoyl]-1,4,6,7-tetrahydro-pyrazolo[4,3-c]pyridine-5-carboxylic acid benzyl ester] gave a concentration for half-maximal inhibition (IC50) on Cannabinoid CB1 Receptor of 20 nM. For the same compound, the inhibition at 0.2 µM on Cannabinoid CB2 Receptor is 27%. The compound further returned an EC50 on CB1 receptor (human) of 60 nM.

Regarding `CC(=O)N1C/C(=C\c2ccc(F)cc2)c2c(c(C(=O)NN3CCCCC3)nn2-c2ccc(Cl)cc2Cl)C1` [Cpd 10, (7E)-5-acetyl-1-(2,4-dichloro-phenyl)-7-(4-fluoro-benzylidene)-4,5,6,7-tetrahydro-1H-pyrazolo[4,3-c]pyridine-3-carboxylic acid piperidin-1-ylamide], the IC50 at Cannabinoid CB1 Receptor was 70 nM. In addition, the inhibition at 0.2 µM at Cannabinoid CB2 Receptor is 63%. It took 20 nM to reach a half-maximal effect on CB1 receptor (human) (EC50).

On Cannabinoid CB1 Receptor, `C[C@@H](NC(=O)c1nn(-c2ccc(Cl)cc2Cl)c2c1CN(C(=O)OC(C)(C)C)C/C2=C\c1ccc(F)cc1)c1ccccc1` [Cpd 2, (7E)-1-(2,4-dichloro-phenyl)-7-(4-fluoro-benzylidene)-3-[(1R)-1-phenyl-ethyl-carbamoyl]-1,4,6,7-tetrahydro-pyrazolo[4,3-c]pyridine-5-carboxylic acid tert-butyl ester] returned a 50% inhibitory concentration (IC50) of 30 nM. Also, on Cannabinoid CB2 Receptor, the inhibition at 0.2 µM stood at 16%. At CB1 receptor (human), this compound had a half-maximal effective concentration (EC50) of 10 nM.

`COC(=O)N1C/C(=C\c2ccc(OC)cc2)c2c(c(C(=O)N[C@H](C)c3ccccn3)nn2-c2ccc(Cl)cc2Cl)C1` [Cpd 96, (7E)-1-(2,4-dichloro-phenyl)-7-(4-methoxy-benzylidene)-3-[(1R)-1-pyridin-2-yl-ethylcarbamoyl]-1,4,6,7-tetrahydro-pyrazolo[4,3-c]pyridine-5-carboxylic acid methyl ester] gave an IC50 at Cannabinoid CB1 Receptor of 3 nM. Further, the inhibition at 0.2 µM at Cannabinoid CB2 Receptor was 56%. At CB1 receptor (human), this compound displayed an EC50 of 1 nM.

`COc1ccc(/C=C2\CN(C(=O)OC(C)(C)C)Cc3c(C(=O)N[C@H](C)c4ccccc4)nn(-c4ccc(Cl)cc4Cl)c32)cc1` [Cpd 35, (7E)-1-(2,4-dichloro-phenyl)-7-(4-methoxy-benzylidene)-3-[(1R)-1-phenyl-ethylcarbamoyl]-1,4,6,7-tetrahydro-pyrazolo[4,3-c]pyridine-5-carboxylic acid tert-butyl ester]: the IC50 on Cannabinoid CB1 Receptor was found to be 20 nM. Also, the inhibition at 0.2 µM at Cannabinoid CB2 Receptor turned out to be 27%. Also, the EC50 on CB1 receptor (human) stood at 4 nM.

On Cannabinoid CB1 Receptor, `COc1ccc(/C=C2\CN(C(C)=O)Cc3c(C(=O)N[C@H](C)c4ccccc4)nn(-c4ccc(Cl)cc4Cl)c32)cc1` [Cpd 42, (7E)-5-acetyl-1-(2,4-dichloro-phenyl)-7-(4-methoxy-benzylidene)-4,5,6,7-tetrahydro-1H-pyrazolo[4,3-c]pyridine-3-carboxylic acid [(1R)-1-phenyl-ethyl]-amide] gave an IC50 of 5 nM. For the same compound, the inhibition at 0.2 µM at Cannabinoid CB2 Receptor is 38%. Moreover, the half-maximal effective concentration (EC50) on CB1 receptor (human) was 1 nM.

On Cannabinoid CB1 Receptor, `C[C@@H](NC(=O)c1nn(-c2ccc(Cl)cc2)c2c1CN(S(C)(=O)=O)C/C2=C\c1ccc(F)cc1)c1ccccc1` [Cpd 71, (7E)-1-(4-chloro-phenyl)-7-(4-fluoro-benzylidene)-5-methanesulfonyl-4,5,6,7-tetrahydro-1H-pyrazolo[4,3-c]pyridine-3-carboxylic acid [(1R)-1-phenyl-ethyl]-amide] came in with a 50% inhibitory concentration (IC50) of 4 nM. In addition, the inhibition at 0.2 µM at Cannabinoid CB2 Receptor turned out to be 3%. This compound also yielded an EC50 on CB1 receptor (human) of 1 nM.

As to `CS(=O)(=O)N1C/C(=C\c2ccc(F)cc2)c2c(c(C(=O)NN3CCCCC3)nn2-c2ccc(Cl)cc2Cl)C1` [Cpd 33, (7E)-1-(2,4-dichloro-phenyl)-7-(4-fluoro-benzylidene)-5-methanesulfonyl-4,5,6,7-tetrahydro-1H-pyrazolo[4,3-c]pyridine-3-carboxylic acid piperidin-1-ylamide], the half-maximal inhibitory concentration (IC50) at Cannabinoid CB1 Receptor was found to be 30 nM. In addition, the inhibition at 0.2 µM at Cannabinoid CB2 Receptor came to 15%. This compound also displayed an EC50 on CB1 receptor (human) of 9 nM.

`COC(=O)N1C/C(=C\c2ccc(F)cc2)c2c(c(C(=O)NC(C)c3ccccn3)nn2-c2ccc(Cl)cc2)C1` (stereo not drawn) [Cpd 79, (7E)-1-(4-chloro-phenyl)-7-(4-fluoro-benzylidene)-3-(1-pyridin-2-yl-ethylcarbamoyl)-1,4,6,7-tetrahydro-pyrazolo[4,3-c]pyridine-5-carboxylic acid methyl ester] displayed a concentration for half-maximal inhibition (IC50) on Cannabinoid CB1 Receptor of 10 nM. Further, the inhibition at 0.2 µM at Cannabinoid CB2 Receptor came to 13%. In addition, the 50% effective concentration (EC50) at CB1 receptor (human) was 3 nM.

Turning to `COc1ccc(/C=C2\CN(S(C)(=O)=O)Cc3c(C(=O)N[C@H](C)c4ccccn4)nn(-c4ccc(Cl)cc4Cl)c32)cc1` [Cpd 99, (7E)-1-(2,4-dichloro-phenyl)-5-methanesulfonyl-7-(4-methoxy-benzylidene)-4,5,6,7-tetrahydro-1H-pyrazolo[4,3-c]pyridine-3-carboxylic acid [(1R)-1-pyridin-2-yl-ethyl]-amide], the half-inhibitory concentration (IC50) on Cannabinoid CB1 Receptor is 2 nM. Also, the inhibition at 0.2 µM on Cannabinoid CB2 Receptor is 32%. For the same compound, it took 3 nM to reach a half-maximal effect on CB1 receptor (human) (EC50).

As to `O=C(NN1CCCCC1)c1nn(-c2ccc(Cl)cc2Cl)c2c1CNC/C2=C\c1ccc(F)cc1` [Cpd 12, (7E)-1-(2,4-dichloro-phenyl)-7-(4-fluoro-benzylidene)-4,5,6,7-tetrahydro-1H-pyrazolo[4,3-c]pyridine-3-carboxylic acid piperidin-1-ylamide], on Cannabinoid CB1 Receptor, the half-inhibitory concentration (IC50) turned out to be 100 nM. Besides, the inhibition at 0.2 µM at Cannabinoid CB2 Receptor came out at 5%. For the same compound, a half-maximal response on CB1 receptor (human) (EC50) required 80 nM.

`Cc1ccc(S(=O)(=O)N2C/C(=C\c3ccc(F)cc3)c3c(c(C(=O)N[C@H](C)C4CCCCC4)nn3-c3ccc(Cl)cc3Cl)C2)cc1` [Cpd 31, (7E)-1-(2,4-dichloro-phenyl)-7-(4-fluoro-benzylidene)-5-(toluene-4-sulfonyl)-4,5,6,7-tetrahydro-1H-pyrazolo[4,3-c]pyridine-3-carboxylic acid [(1R)-1-cyclohexyl-ethyl]-amide] registered an IC50 on Cannabinoid CB1 Receptor of 30 nM. Moreover, on Cannabinoid CB2 Receptor (setting [1]), the “Cannabinoid CB2 Receptor Binding percent inhibition” value was 29%. The same compound showed a concentration giving a half-maximal response (EC50) on CB1 receptor (human) of 1100 nM.

For the compound `COC(=O)CN1CCc2c(c(C(=O)NC3C4(C)CCC(C4)C3(C)C)nn2C2CCCCC2)C1` (stereo not drawn) [Cpd 128, [1-cyclohexyl-3-(1,3,3-trimethyl-bicyclo[2.2.1]hept-2-ylcarbamoyl)-1,4,6,7-tetrahydro-pyrazolo[4,3-c]pyridin-5-yl]-acetic acid methyl ester], the 50% inhibitory concentration (IC50) on Cannabinoid CB1 Receptor (human CB1, SK-N-MC cell membranes, calculated by linear regression from percent inhibition at various concentrations, read-out: Cannabinoid CB1 Receptor Binding IC50) was 700 nM; on Cannabinoid CB2 Receptor (human CB2, SK-N-MC cell membranes, calculated by linear regression from percent inhibition at various concentrations, read-out: Cannabinoid CB2 Receptor Binding IC50) it was 400 nM. In addition, the “CB1 Receptor Functional Activity (change in functional activity, CRE β-gal)” value on CB1 receptor (human) (one compound concentration, β-galactosidase activity relative to vehicle treated cells) is −7%.

`C[C@@H](NC(=O)c1nn(-c2ccc(Cl)cc2Cl)c2c1CN(S(C)(=O)=O)C/C2=C\c1ccc(F)cc1)C1CCCCC1` [Cpd 30, (7E)-1-(2,4-dichloro-phenyl)-7-(4-fluoro-benzylidene)-5-methanesulfonyl-4,5,6,7-tetrahydro-1H-pyrazolo[4,3-c]pyridine-3-carboxylic acid [(1R)-1-cyclohexyl-ethyl]-amide] returned a 50% inhibitory concentration (IC50) on Cannabinoid CB1 Receptor of 7 nM. Also, the inhibition at 0.2 µM at Cannabinoid CB2 Receptor came out at 1%. On CB1 receptor (human), this compound displayed an EC50 of 1 nM.

At Cannabinoid CB1 Receptor, `CCNC(=O)N1C/C(=C\c2ccc(F)cc2)c2c(c(C(=O)NC(C)c3ccccn3)nn2-c2ccc(Cl)cc2)C1` (stereo not drawn) [Cpd 77, (7E)-1-(4-chloro-phenyl)-7-(4-fluoro-benzylidene)-1,4,6,7-tetrahydro-pyrazolo[4,3-c]pyridine-3,5-dicarboxylic acid 5-ethylamide 3-[(1-pyridin-2-yl-ethyl)-amide]] returned an IC50 of 80 nM. Also, on Cannabinoid CB2 Receptor, the inhibition at 0.2 µM came out at 0%. This compound showed an EC50 at CB1 receptor (human) of 10 nM.

In the case of `COc1ccc(/C=C2\CN(C(=O)OC(C)(C)C)Cc3c(C(=O)N[C@H](C)c4ccccn4)nn(-c4ccc(Cl)cc4Cl)c32)cc1` [Cpd 89, (7E)-1-(2,4-dichloro-phenyl)-7-(4-methoxy-benzylidene)-3-[(1R)-1-pyridin-2-yl-ethylcarbamoyl]-1,4,6,7-tetrahydro-pyrazolo[4,3-c]pyridine-5-carboxylic acid tert-butyl ester], on Cannabinoid CB1 Receptor, the IC50 was determined as 20 nM. In addition, the inhibition at 0.2 µM on Cannabinoid CB2 Receptor worked out at 27%. This compound showed an EC50 on CB1 receptor (human) of 5 nM.

As for `COC(=O)N1C/C(=C\c2ccc(F)cc2)c2c(c(C(=O)NN3CCCCC3)nn2-c2ccc(Cl)cc2Cl)C1` [Cpd 11, (7E)-1-(2,4-dichloro-phenyl)-7-(4-fluoro-benzylidene)-3-(piperidin-1-ylcarbamoyl)-1,4,6,7-tetrahydro-pyrazolo[4,3-c]pyridine-5-carboxylic acid methyl ester], the half-inhibitory concentration (IC50) at Cannabinoid CB1 Receptor was 50 nM. The inhibition at 0.2 µM at Cannabinoid CB2 Receptor is 15%. Besides, at CB1 receptor (human), the EC50 was found to be 40 nM.

With `COC(=O)N1C/C(=C\c2ccc(F)cc2)c2c(c(C(=O)N[C@@H](C)C3CCCCC3)nn2-c2ccc(Cl)cc2Cl)C1` [Cpd 7, (7E)-3-[(1S)-1-cyclohexyl-ethylcarbamoyl]-1-(2,4-dichloro-phenyl)-7-(4-fluoro-benzylidene)-1,4,6,7-tetrahydro-pyrazolo[4,3-c]pyridine-5-carboxylic acid methyl ester], at Cannabinoid CB1 Receptor, the IC50 was 40 nM. Further, at Cannabinoid CB2 Receptor (setting [1]), the inhibition at 0.2 µM is 13%. The same compound yielded an EC50 at CB1 receptor (human) of 10 nM.
